Laboratory results: the NIST ThermoML archive (doi:10.1021/je8004062)

Assay: mn = molality of the nth substance listed, in mol/kg
Settings: 101 kPa, Liquid

[Cl-].[Cl-].[Cl-].[La+3] [lanthanum chloride] + O
Settings	mass density, 293.15 K [kg/m3]	mass density, 298.15 K [kg/m3]	mass density, 303.15 K [kg/m3]	viscosity, 293.15 K [mPa·s]	viscosity, 298.15 K [mPa·s]	viscosity, 303.15 K [mPa·s]
m1 = 0.0996	1020.8	1019.4	1018	1.068	0.9503	0.8517
m1 = 0.1997	1043.7	1042.1	1040.4	1.109	0.9881	0.8863
m1 = 0.2997	1065.6	1063.8	1062	1.176	1.049	0.9414
m1 = 0.3994	1086.9	1085	1083.2	1.255	1.12	1.006
m1 = 0.4984	1107.7	1105.8	1103.9	1.34	1.196	1.075
m1 = 0.6	1128.9	1126.9	1125	1.432	1.279	1.149
m1 = 0.6981	1149.1	1147.2	1145.3	1.524	1.361	1.224
m1 = 0.7983	1169.6	1167.7	1165.8	1.621	1.447	1.301
m1 = 0.9256	1195.5	1193.7	1191.8	1.745	1.558	1.402
m1 = 1.201	1251.1	1249.5	1247.8	2.02	1.804	1.624
